Structures can show the parent of a compound that is named as a salt.
Tested on: SW 480
Experiment: Growth inhibition test (MTT) for cytotoxic properties
Assay type: cell-based, human
Conditions: Table 1a, glycoconjugates of batracyline
Protocol: (§1) Growth Inhibition Test for Determination of the Cytotoxic Properties of Glycoconjugates of Batracyline and of Quinolone-a
(§2) The human colon cell lines SW 480 and HT 29 (ATCC no. CCL 228 and HBT-38) and the mouse melanoma cell line B 16 F 10 were cultured in Roux dishes in RPMI 1640 medium with addition of 10% FCS. The cultures were then trypsinized and taken up in RPMI plus 10% FCS to a cell count of 50,000 cells/ml. 100 μl of cell suspension/well were introduced into a 96 microwell plate and incubated for 1 day at 37° C. in a CO2 incubating cabinet. A further 100 μl of RPMI medium and 1 μl of dimethyl sulphoxide with the test substances were then added. The growth was checked after day 3 and day 6. 40 μl of MTT solution (3-(4,5-dimethylthiazol-2-yl)-2,5-diphenyltetrazoline bromide) with an initial concentration of 5 mg/ml of H2 O were added to each microwave. The plate was incubated for 5 hours in a CO2 incubating cabinet at 37° C. The medium was then sucked off and 100 μl of i-propanol/well were added. After shaking for 30 minutes with 100 μl of H2 O, the extinction was measured at 540 nm with a Titertek Multiskan MCC/340 (Flow).
(§3) The cytotoxic action of the glycoconjugates of batracyline described is shown in Table 1a as the IC50 value in each case for the SW 480 and HT 29 cell lines.

**Q.** C[C@@H]1O[C@H](Oc2ccc(NC(=S)NCCCC[C@H](N)C(=O)N[C@H](C)C(=O)Nc3ccc4c(c3)CN3C(=O)c5ccccc5C3=N4)cc2)[C@@H](O)C[C@@H]1O [Example 3.7, N-{N^ε -[O-(3-Deoxy-β-L-fucosyl)-4-hydroxy-phenylamino-thiocarbonyl]-lysyl-D -alanyl}-batracyline, trifluoroacetate] was tested. Which IC50 did it give?
**A.** The IC50 was 55 µM.

**Q.** How did the IC50 turn out when CO[C@H]1[C@@H](O)[C@H](O)[C@@H](Oc2ccc(NC(=S)NCCCC[C@H](N)C(=O)N[C@H](C)C(=O)Nc3ccc4c(c3)Cn3c-4nc4ccccc4c3=O)cc2)O[C@H]1C [Example 3.11, N-{N^ε -[O-(4-O-Methyl-β-L-fucosyl)-4-hydroxy-phenylamino-thiocarbonyl]-lysyl-D-alanyl}-batracyline, acetate] was run?
**A.** The IC50 was 85 µM.

**Q.** With CNC(=O)COC1C(O)C(CO)OC(Oc2ccc(NC(=S)NCCCCC(N)C(=O)NC(C)C(=O)Nc3ccc4nc5n(c(=O)c4c3)Cc3ccccc3-5)cc2)C1O [Example 3.20, N-{N^ε -[O-(3-O-(N-Methyl-carbamoylmethyl)-β-D-galactopyranosyl)-4-hydroxy-phenylamino-thiocarbonyl]-lysyl-D-alanyl}-batracyline, trifluoroacetate] as the compound, how does the IC50 read?
**A.** Its IC50 is 100 µM.

**Q.** CC(=O)OCC1OC(Oc2ccc(NC(=S)NCCCCC(N)C(=O)NC(C)C(=O)Nc3ccc4nc5n(c(=O)c4c3)Cc3ccccc3-5)cc2)C(O)C(O)C1O [Example 3.24, N-{N^ε -[O-(6-O-Acetyl-β-D-galactopyranosyl)-4-hydroxy-phenylamino-thiocarbonyl]-lysyl-D-alanyl}-batracyline, trifluoroacetate] was tested. Which IC50 did it give?
**A.** The IC50 was 95 µM.

**Q.** COC1C(Oc2ccc(NC(=S)NCCCCC(N)C(=O)NC(C)C(=O)Nc3ccc4nc5n(c(=O)c4c3)Cc3ccccc3-5)cc2)OC(CO)C(O)C1OC [Example 3.27, N-{N^ε -[O-(2,3-Di-O-methyl-α-D-mannopyranosyl)-4-hydroxy-phenylamino-thiocarbonyl]-lysyl-D-alanyl}-batracyline, trifluoroacetate] was tested. Which IC50 did it give?
**A.** Its IC50 is 110 µM.

**Q.** CO[C@@H]1[C@@H](O)[C@H](Oc2ccc(NC(=S)N[C@@H](CCCCN)C(=O)N[C@H](C)C(=O)Nc3ccc4c(c3)CN3C(=O)c5ccccc5C3=N4)cc2)O[C@H](CO)[C@@H]1OC [Example 4.5, N-{N^α -[O-(3,4-Di-O-methyl-β-D-galactopyranosyl)-4-hydroxy-phenylamino-thiocarbonyl]-lysyl-D-alanyl}-batracyline] was tested. Which IC50 did it give?
**A.** The IC50 was 15 µM.

**Q.** COC1C(O)C(C)OC(Oc2ccc(NC(=S)NCCCCC(NC(=S)Nc3ccc(OC4OC(C)C(O)C(OCC(=O)O)C4O)cc3)C(=O)NC(C)C(=O)Nc3ccc4nc5n(c(=O)c4c3)Cc3ccccc3-5)cc2)C1O [Example 5.1, N-{N^α -[O-(3-O-Carboxymethyl-β-L-fucosyl)-4-hydroxyphenylaminothiocarbonyl] -N^ε -[O-(3-O-methyl-β-L-fucosyl)-4-hydroxyphenylaminothiocarbonyl]-lysyl-D-alanyl}-batracyline] was tested. Which IC50 did it give?
**A.** The IC50 was 55 µM.

**Q.** How did the IC50 turn out when COC1C(C)OC(Oc2ccc(NC(=S)NCCCCC(NC(=S)Nc3ccc(OC4OC(C)C(OC)C(O)C4O)cc3)C(=O)NC(C)C(=O)Nc3ccc4nc5n(c(=O)c4c3)Cc3ccccc3-5)cc2)C(O)C1O [Example 6.3, N-{N^α,N^ε -Bis-[O-(4-O-methyl-β-L-fucosyl)-4-hydroxy-phenylamino-thiocarbonyl]-lysyl-D-alanyl}-batracyline] was run?
**A.** The IC50 was 70 µM.

**Q.** For CC(NC(=O)C(CCCCNC(=S)Nc1ccc(OC2OC(CO)C(O)C(OCC(N)=O)C2O)cc1)NC(=S)Nc1ccc(OC2OC(CO)C(O)C(OCC(N)=O)C2O)cc1)C(=O)Nc1ccc2nc3n(c(=O)c2c1)Cc1ccccc1-3 [Example 6.82, N-{N^α,N^ε -Bis-[O-(3-O-carbamoylmethyl-β-D-galactopyranosyl)-4-hydroxy-phenylamino-thiocarbonyl]-lysyl-D-alanyl}-batracyline], which IC50 is on record?
**A.** The IC50 was 125 µM.

**Q.** CO[C@H]1[C@H](O)[C@@H](Oc2ccc(Nc3nc(NCCO)nc(NCCCC[C@H](N)C(=O)N[C@H](C)C(=O)Nc4ccc5c(=O)n6c(nc5c4)-c4ccccc4C6)n3)cc2)O[C@@H](C)[C@H]1O [Example 8.10, N-{N^ε -[4-Hydroxyethylamino-2-[O-(3-O-methyl-β-L-fucosyl)-4-hydroxy-phenylamino]-triazin-6-yl]-lysyl-D-alanyl}-batracyline, trifluoroacetate] was tested. Which IC50 did it give?
**A.** The IC50 was 70 µM.

**Q.** How did the IC50 turn out when CO[C@H]1[C@@H](O)[C@H](O)[C@@H](Oc2ccc(Nc3nc(NCCO)nc(NCCCC[C@H](N)C(=O)N[C@@H](C)C(=O)Nc4ccc5c(c4)CN4C(=O)c6ccccc6C4=N5)n3)cc2)O[C@H]1C [Example 8.12, N-{N^ε -[4-Hydroxyethylamino-2-[O-(4-O-methyl-β-L-fucosyl)-4-hydroxy-phenylamino]-triazin-6-yl]-lysyl-alanyl}-batracyline, trifluoroacetate] was run?
**A.** Its IC50 is 30 µM.

**Q.** How did the IC50 turn out when “N-{N-[O-(β-L-Fucosyl)-4-hydroxy-phenylamino-thiocarbonyl]-glutamyl-D-a lanyl}-batracyline [Example 7.5]” was run?
**A.** Its IC50 is 80 µM.

**Q.** Which IC50 does the source give for “N-{N^α -[4-Hydroxyphenylamino-thiocarbonyl]-N^ε -[O-(4-O-methyl-β-L-fucosyl)-4-hydroxyphenylamino-thiocarbonyl]-lysyl -D-alanyl}-batracyline [Example 5.6]” here?
**A.** Its IC50 is over 250 µM.

**Q.** Which IC50 does the source give for “N-{N^α,N^ε -Bis-[O-(3,4-O-dideoxy-β-D-galactopyranosyl)-4-hydroxy-phenylamino-th iocarbonyl]-lysyl-D-alanyl}-batracyline [Example 6.83]” here?
**A.** The IC50 was 90 µM.

**Q.** “N-{N^α,N^ε -Bis-[O-(3,4-di-O-methyl-β-D-galactopyranosyl)-4-hydroxy-phenylamino- thiocarbonyl]-lysyl-alanyl}-batracyline [Example 6.85]” was tested. Which IC50 did it give?
**A.** Its IC50 is 22 µM.

**Q.** Which IC50 does the source give for “N-{N^α,N^ε -Bis-[O-(3-O-carbamoylmethyl-β-D-galactopyranosyl)-4-hydroxy-phenylam ino-thiocarbonyl]-lysyl-seryl}-batracyline [Example 6.35]” here?
**A.** The IC50 was 20 µM.

**Q.** “N-{N^α,N^ε -Bis-[O-(3-O-carboxymethyl-β-D-galactopyranosyl)-4-hydroxy-phenylamin o-thiocarbonyl]-lysyl-seryl}-batracyline, di-sodium salt [Example 6.34]” was tested. Which IC50 did it give?
**A.** The IC50 was 50 µM.

**Q.** How did the IC50 turn out when “N-{N^α,N^ε -Bis-[O-(3-O-carboxymethyl-β-L-fucosyl)-4-hydroxy-phenylamino-thiocar bonyl]-lysyl-diaminopropionyl}-batracyline, di-sodium salt [Example 6.21]” was run?
**A.** The IC50 was 150 µM.

**Q.** “N-{N^α,N^ε -Bis-[O-(3-O-methyl-β-L-fucosyl)-4-hydroxy-phenylamino-thiocarbonyl]- lysyl-diaminopropionyl}-batracyline [Example 6.20]” was tested. Which IC50 did it give?
**A.** Its IC50 is 80 µM.

**Q.** Which IC50 does the source give for “N-{N^ε -[4-Hydroxyethylamino-2-[O-(2-O-methyl-β-L-fucosyl)-4-hydroxy-phenyla mino]-triazin-6-yl]-lysyl-alanyl}-batracyline, trifluoroacetate [Example 8.11]” here?
**A.** Its IC50 is 45 µM.

**Q.** For “N-{N^ε -[-(3-O-Carbamoylmethyl-β-D-galactopyranosyl)-4-hydroxy-phenylamino-t hiocarbonyl]-lysyl-D-alanyl}-batracyline, trifluoroacetate [Example 3.19]”, which IC50 is on record?
**A.** The IC50 was 75 µM.

**Q.** For “N-{N^ε -[O-(3-O-(N-Propyl-carbamoylmethyl)-β-D-galactopyranosyl)-4-hydroxy-p henylamino-thiocarbonyl]-lysyl-D-alanyl}-batracyline, trifluoroacetate [Example 3.21]”, which IC50 is on record?
**A.** The IC50 was 90 µM.

**Q.** Which IC50 does the source give for “N-{N^ε -[O-(3-O-Carbamoylmethyl-α-D-mannopyranosyl)-4-hydroxy-phenylamino-t hiocarbonyl]-lysyl-D-alanyl}-batracyline, trifluoroacetate [Example 3.30]” here?
**A.** The IC50 was over 250 µM.

**Q.** “N-{N^ε -[O-(3-O-Carboxymethyl-α-D-mannopyranosyl)-4-hydroxy-phenylamino-thi ocarbonyl]-lysyl-D-alanyl}-batracyline, trifluoroacetate [Example 3.29]” was tested. Which IC50 did it give?
**A.** Its IC50 is 110 µM.

**Q.** Which IC50 does the source give for “N-{N^ε -[O-(3-O-Carboxymethyl-β-D-galactopyranosyl)-4-hydroxy-phenylamino-th iocarbonyl]-lysyl-D-alanyl}-batracyline, trifluoroacetate [Example 3.18]” here?
**A.** The IC50 was 15 µM.

**Q.** How did the IC50 turn out when “N-{N^ε -[O-(3-O-Methoxycarbonylmethyl-α-D-mannopyranosyl)-4-hydroxy-phenyla mino-thiocarbonyl]-lysyl-D-alanyl}-batracyline, trifluoroacetate [Example 3.28]” was run?
**A.** Its IC50 is 60 µM.

**Q.** Which IC50 does the source give for “N-{N^ε -[O-(3-O-Methyl-β-D-galactopyranosyl)-4-hydroxy-phenylamino-thiocarbo nyl]-lysyl-D-alanyl}-batracyline, trifluoroacetate [Example 3.14]” here?
**A.** The IC50 was 40 µM.

**Q.** How did the IC50 turn out when “N-{N^ε [O-(3-O-Methyl-α-D-mannopyranosyl)-4-hydroxy-phenylamino-thiocarbony l]-lysyl-D-alanyl}-batracyline, trifluoroacetate [Example 3.26]” was run?
**A.** Its IC50 is 50 µM.

**Q.** How did the IC50 turn out when “N-{N^ε-[O-( 3,4-Dideoxy-β-D-galactopyranosyl)-4-hydroxy-phenylamino-thiocarbonyl] -lysyl-D-alanyl}-batracyline, trifluoroacetate [Example 3.23]” was run?
**A.** The IC50 was 50 µM.

Tested on: HT 29
Experiment: as above
Assay type: cell-based, human
Conditions: Table 1a, glycoconjugates of batracyline
Protocol: as §1, §2, §3

**Q.** CO[C@@H]1[C@@H](O)[C@H](Oc2ccc(NC(=S)N[C@@H](CCCCN)C(=O)N[C@H](C)C(=O)Nc3ccc4c(c3)CN3C(=O)c5ccccc5C3=N4)cc2)O[C@H](CO)[C@@H]1OC [Example 4.5, N-{N^α -[O-(3,4-Di-O-methyl-β-D-galactopyranosyl)-4-hydroxy-phenylamino-thiocarbonyl]-lysyl-D-alanyl}-batracyline] was tested. Which IC50 did it give?
**A.** The IC50 was 15 µM.

**Q.** With COC1C(O)C(C)OC(Oc2ccc(NC(=S)NCCCCC(NC(=S)Nc3ccc(OC4OC(C)C(O)C(OCC(=O)O)C4O)cc3)C(=O)NC(C)C(=O)Nc3ccc4nc5n(c(=O)c4c3)Cc3ccccc3-5)cc2)C1O [Example 5.1, N-{N^α -[O-(3-O-Carboxymethyl-β-L-fucosyl)-4-hydroxyphenylaminothiocarbonyl] -N^ε -[O-(3-O-methyl-β-L-fucosyl)-4-hydroxyphenylaminothiocarbonyl]-lysyl-D-alanyl}-batracyline] as the compound, how does the IC50 read?
**A.** The IC50 was 45 µM.

**Q.** For COC1C(C)OC(Oc2ccc(NC(=S)NCCCCC(NC(=S)Nc3ccc(OC4OC(C)C(OC)C(O)C4O)cc3)C(=O)NC(C)C(=O)Nc3ccc4nc5n(c(=O)c4c3)Cc3ccccc3-5)cc2)C(O)C1O [Example 6.3, N-{N^α,N^ε -Bis-[O-(4-O-methyl-β-L-fucosyl)-4-hydroxy-phenylamino-thiocarbonyl]-lysyl-D-alanyl}-batracyline], which IC50 is on record?
**A.** The IC50 was 105 µM.

Source: patent US6271342A, “Sugar-modified cytostatics” (Bayer Aktiengesellschaft, priority 1995, dated 2001)
